Tests used:
TUBB3 = experiment: Microarray gene expression in brain, spleen and liver of Hsd:Athymic Nude-Foxn1nu mice (Example 7), housekeeping gene; format: in vivo, mouse
Protocol: (§1) Total RNA was extracted from samples using the RNeasy extraction kit (Qiagen). The quality and concentration of the RNA was analyzed using the Agilent 2100 bioanalyzer and NanoDrop™ ND-1000 (Thermo Scientific). Samples with RNA integrity number (RIN)<6.0 were discarded. Total RNA (0.5 μg) amplification and labelling with Cy3 or Cy5 was carried out using the Eberwein mRNA amplification procedure (Van Gelder et al, Proc Natl Acad Sci USA 1990, 87:1663-1667) employing the MessageAmp™ aRNA amplification kit from Ambion (Applied Biosystems) following the manufacturer's instructions with minor modifications. As hybridization controls, plant mRNAs were transcribed from a plasmid containing the Zea mays Xet (xyloglucan endo-transglycosylase) cDNA and from a plasmid containing the Zea mays Zmmyb42 cDNA, independently prepared Cy3 and Cy5 labelled aRNA from these two RNAs using the Eberwein mRNA amplification procedure (as disclosed in Cerdà et al, Gen Comp Endocrinol 2008, 156:470-481).
(§2) The Cy3- and Cy5-labelled cRNAs and spikes were combined and hybridized to the microarray described in Example 2.6 for 17 h at 60° C. using Agilent's gaskets G2534-60002, G2534A hybridization chambers and DNA Hybridization Oven G2545A, according to the manufacturer's instructions. More specifically, equal amounts of Cy3 and Cy5 labeled Xet aRNA as well as equal amounts of Cy3 and Cy5 labeled Zmmyb42 aRNA were spiked into each mixture hybridized to the array. Arrays were washed and raw data were obtained using Agilent's DNA Microarray Scanner G2505B and Feature Extraction software (v10.1). The raw fluorescence intensity data were processed using applicant's proprietary software, and consists in the following operations:
(§3) Data normalization was carried out by an improved version of the nonlinear Q-splines normalization method (Workman et al., Genome Biol 2002, 3(9):research0048.1-0048.16). Normalization results were presented graphically as MA plots, as first described by Dudoit et al (Dudoit et al, Statistica Sinica, 2002, 12:111-139). Each point corresponds to a probe of the DNA array. M values (vertical axis) are the log-differential expression ratios. A values (horizontal axis) are the log-intensities of the spots. M and A are calculated from the Cy5 and Cy3 intensity values as of each spot. The DNA Array data is normalized using an improved version of non-linear Q-Splines normalization described by Workman et al., Genome Biol 2002, 3(9):research0048.1-0048.16. This process is useful to correct the deviation of the M values from the statistical assumption that most of the spots have M=0 in MA plots. The method allows the adjustment of all M values to form a cloud centered at M=0 in all intensity ranges. The data used to calculate the normalization fitting curve is the totality of the raw measurement dataset, excluding the signals for the probes for the spiked-in plant RNA controls and negative controls. In order to be able to normalize properly the data among all the experiments, the probe-set must include an important group of genes that should have no change (M=0) in the experiment. The normalization function is then applied to all the data, including controls.
(§4) Normalized and log-transformed data were used to calculate log 2 (sample/control) and Fold Change (FC) values. No background subtraction was applied to the signal intensity values during data processing, permitting robust selection of differentially expressed genes with low expression levels at the cost of potential sub-estimation of change when intensity levels are close to the array background level.
(§5) Powered Compound 3, 4 or 5 was dissolved in a 20% solution of 2-hydroxypropyl-R-cyclodextrin in water at the appropriate concentrations, vortexed and placed in an ultrasonic bath for 5 minutes.
(§6) Hsd:Athymic Nude-Foxn1nu mice were maintained in air- and temperature-controlled cages with regular supply of water and food. A maximum of 6 mice/cage were raised. […]

TUBB2C = experiment: as above; format: in vivo, mouse
Protocol: as §1, §2, §3, §4, §5, §6

NC(=O)CN[C@H]1C[C@@H]1c1ccc(OCc2ccccc2)cc1 (racemic) [Compound 3, 2-(((trans)-2-(4-(benzyloxy)phenyl)cyclopropyl)amino)acetamide]
Hybridization signal sample_Cy5 (TUBB3; BRAIN, TUBB3, 5 mg/kg): 2574.04 | log2 (sample/control) (TUBB3; BRAIN, TUBB3, 5 mg/kg vs VEH): −0.223 | Hybridization signal sample_Cy5 (TUBB3; BRAIN, TUBB3, 10 mg/kg): 3248.86 | log2 (sample/control) (TUBB3; BRAIN, TUBB3, 10 mg/kg vs VEH): −0.06283 | Hybridization signal sample_Cy5 (TUBB3; BRAIN, TUBB3, 20 mg/kg): 3078.53 | log2 (sample/control) (TUBB3; BRAIN, TUBB3, 20 mg/kg vs VEH): −0.0238 | Hybridization signal sample_Cy5 (TUBB3; BRAIN, TUBB3, 40 mg/kg): 3573.76 | log2 (sample/control) (TUBB3; BRAIN, TUBB3, 40 mg/kg vs VEH): 0.02054 | Hybridization signal sample_Cy5 (TUBB3; LIVER, TUBB3, 5 mg/kg): 64.7691 | log2 (sample/control) (TUBB3; LIVER, TUBB3, 5 mg/kg vs VEH): −0.09742 | Hybridization signal sample_Cy5 (TUBB3; LIVER, TUBB3, 10 mg/kg): 68.7068 | log2 (sample/control) (TUBB3; LIVER, TUBB3, 10 mg/kg vs VEH): 0.02345 | Hybridization signal sample_Cy5 (TUBB3; LIVER, TUBB3, 20 mg/kg): 48.4567 | log2 (sample/control) (TUBB3; LIVER, TUBB3, 20 mg/kg vs VEH): −0.04225 | Hybridization signal sample_Cy5 (TUBB3; LIVER, TUBB3, 40 mg/kg): 46.9101 | log2 (sample/control) (TUBB3; LIVER, TUBB3, 40 mg/kg vs VEH): 0.01927 | Hybridization signal sample_Cy5 (TUBB3; SPLEEN, TUBB3, 5 mg/kg): 58.6845 | log2 (sample/control) (TUBB3; SPLEEN, TUBB3, 5 mg/kg vs VEH): −0.02944 | Hybridization signal sample_Cy5 (TUBB3; SPLEEN, TUBB3, 10 mg/kg): 52.6685 | log2 (sample/control) (TUBB3; SPLEEN, TUBB3, 10 mg/kg vs VEH): −0.02259 | Hybridization signal sample_Cy5 (TUBB3; SPLEEN, TUBB3, 20 mg/kg): 62.5361 | log2 (sample/control) (TUBB3; SPLEEN, TUBB3, 20 mg/kg vs VEH): −0.1183 | Hybridization signal sample_Cy5 (TUBB3; SPLEEN, TUBB3, 40 mg/kg): 88.3418 | log2 (sample/control) (TUBB3; SPLEEN, TUBB3, 40 mg/kg vs VEH): 0.169 | Hybridization signal sample_Cy5 (TUBB2C; BRAIN, 5 mg/kg): 5903.12 | log2 (sample/control) (TUBB2C; BRAIN, 5 mg/kg vs VEH): 0.09115 | Hybridization signal sample_Cy5 (TUBB2C; BRAIN, 10 mg/kg): 6228.65 | log2 (sample/control) (TUBB2C; BRAIN, 10 mg/kg vs VEH): −0.008955 | Hybridization signal sample_Cy5 (TUBB2C; BRAIN, 20 mg/kg): 6935.27 | log2 (sample/control) (TUBB2C; BRAIN, 20 mg/kg vs VEH): 0.07289 | Hybridization signal sample_Cy5 (TUBB2C; BRAIN, 40 mg/kg): 7405.34 | log2 (sample/control) (TUBB2C; BRAIN, 40 mg/kg vs VEH): 0.06328 | Hybridization signal sample_Cy5 (TUBB2C; LIVER, 5 mg/kg): 2676.03 | log2 (sample/control) (TUBB2C; LIVER, 5 mg/kg vs VEH): −0.1194 | Hybridization signal sample_Cy5 (TUBB2C; LIVER, 10 mg/kg): 2301.43 | log2 (sample/control) (TUBB2C; LIVER, 10 mg/kg vs VEH): −0.2687 | Hybridization signal sample_Cy5 (TUBB2C; LIVER, 20 mg/kg): 2059.18 | log2 (sample/control) (TUBB2C; LIVER, 20 mg/kg vs VEH): −0.578 | Hybridization signal sample_Cy5 (TUBB2C; LIVER, 40 mg/kg): 1551.2 | log2 (sample/control) (TUBB2C; LIVER, 40 mg/kg vs VEH): −0.9728 | Hybridization signal sample_Cy5 (TUBB2C; SPLEEN, 5 mg/kg): 6245.92 | log2 (sample/control) (TUBB2C; SPLEEN, 5 mg/kg vs VEH): −0.05272 | Hybridization signal sample_Cy5 (TUBB2C; SPLEEN, 10 mg/kg): 4019.89 | log2 (sample/control) (TUBB2C; SPLEEN, 10 mg/kg vs VEH): −0.4863 | Hybridization signal sample_Cy5 (TUBB2C; SPLEEN, 20 mg/kg): 4597.76 | log2 (sample/control) (TUBB2C; SPLEEN, 20 mg/kg vs VEH): −0.4097 | Hybridization signal sample_Cy5 (TUBB2C; SPLEEN, 40 mg/kg): 8986.8 | log2 (sample/control) (TUBB2C; SPLEEN, 40 mg/kg vs VEH): −0.9476

Source: patent US20180284095A1, “BIOMARKERS ASSOCIATED WITH LSD1 INHIBITORS AND USES THEREOF” (Oryzon Genomics, S.A., priority 2015, published 2018)
